Values after ≈ are worked out from the molar mass of the structure shown.
How the values were obtained:
Micrococcus luteus [1] = experiment: Antibacterial activity against Micrococcus luteus assessed as growth inhibition at 1 mg/well after 24 hrs by Well method; assay type: functional
Salmonella typhimurium [2] = experiment: Antibacterial activity against Salmonella typhimurium after 24 hrs by two fold serial dilution method; assay type: functional, Salmonella enterica subsp. enterica serovar Typhimurium; details: Salmonella enterica
Staphylococcus aureus [3] = experiment: Antibacterial activity against methicillin-resistant Staphylococcus aureus after 24 hrs by two fold serial dilution method; assay type: functional
Staphylococcus aureus [4] = experiment: Antibacterial activity against Staphylococcus aureus assessed as growth inhibition at 1 mg/well after 24 hrs by Well method; assay type: functional
Klebsiella pneumoniae [5] = experiment: Antibacterial activity against Klebsiella pneumoniae assessed as growth inhibition at 1 mg/well after 24 hrs by Well method; assay type: functional
Pseudomonas aeruginosa [6] = experiment: Antibacterial activity against Pseudomonas aeruginosa after 24 hrs by two fold serial dilution method; assay type: functional
Shigella flexneri [7] = experiment: Antibacterial activity against Shigella flexneri assessed as growth inhibition at 1 mg/well after 24 hrs by Well method; assay type: functional
Proteus vulgaris [8] = experiment: Antibacterial activity against Proteus vulgaris assessed as growth inhibition at 1 mg/well after 24 hrs by Well method; assay type: functional
Shigella flexneri [9] = experiment: Antibacterial activity against Shigella flexneri after 24 hrs by two fold serial dilution method; assay type: functional
Micrococcus luteus [10] = experiment: Antibacterial activity against Micrococcus luteus after 24 hrs by two fold serial dilution method; assay type: functional
Klebsiella aerogenes [11] = experiment: Antibacterial activity against Enterobacter aerogenes after 24 hrs by two fold serial dilution method; assay type: functional
Klebsiella aerogenes [12] = experiment: Antibacterial activity against Enterobacter aerogenes assessed as growth inhibition at 1 mg/well after 24 hrs by Well method; assay type: functional
Staphylococcus aureus [13] = experiment: Antibacterial activity against methicillin-resistant Staphylococcus aureus assessed as growth inhibition at 1 mg/well after 24 hrs by Well method; assay type: functional
Salmonella typhimurium [14] = experiment: Antibacterial activity against Salmonella typhimurium assessed as growth inhibition at 1 mg/well after 24 hrs by Well method; assay type: functional, Salmonella enterica subsp. enterica serovar Typhimurium
[15] = system: Salmonella enterica subsp. enterica serovar Paratyphi B; experiment: Antibacterial activity against Salmonella paratyphi B assessed as growth inhibition at 1 mg/well after 24 hrs by Well method; assay type: functional
Staphylococcus aureus [16] = experiment: Antibacterial activity against Staphylococcus aureus after 24 hrs by two fold serial dilution method; assay type: functional
Bacillus subtilis [17] = experiment: Antibacterial activity against Bacillus subtilis assessed as growth inhibition at 1 mg/well after 24 hrs by Well method; assay type: functional
[18] = system: Salmonella enterica subsp. enterica serovar Paratyphi B; experiment: Antibacterial activity against Salmonella paratyphi B after 24 hrs by two fold serial dilution method; assay type: functional
Pseudomonas aeruginosa [19] = experiment: Antibacterial activity against Pseudomonas aeruginosa assessed as growth inhibition at 1 mg/well after 24 hrs by Well method; assay type: functional
Klebsiella pneumoniae [20] = experiment: Antibacterial activity against Klebsiella pneumoniae after 24 hrs by two fold serial dilution method; assay type: functional
Bacillus subtilis [21] = experiment: Antibacterial activity against Bacillus subtilis after 24 hrs by two fold serial dilution method; assay type: functional
Proteus vulgaris [22] = experiment: Antibacterial activity against Proteus vulgaris after 24 hrs by two fold serial dilution method; assay type: functional
Aspergillus flavus [23] = experiment: Antifungal activity against Aspergillus flavus after 48 to 72 hrs by two fold serial dilution method; assay type: functional
Malassezia pachydermatis [24] = experiment: Antifungal activity against Malassezia pachydermatis after 48 to 72 hrs by two fold serial dilution method; assay type: functional
Candida albicans [25] = experiment: Antifungal activity against Candida albicans after 48 to 72 hrs by two fold serial dilution method; assay type: functional
Candida albicans [26] = experiment: Antifungal activity against Candida albicans assessed as growth inhibition at 1 mg/well after 48 hrs by Well method; assay type: functional
Malassezia pachydermatis [27] = experiment: Antifungal activity against Malassezia pachydermatis assessed as growth inhibition at 1 mg/well after 48 hrs by Well method; assay type: functional
Aspergillus flavus [28] = experiment: Antifungal activity against Aspergillus flavus assessed as growth inhibition at 1 mg/well after 48 hrs by Well method; assay type: functional
[29] = system: Staphylococcus epidermidis; experiment: Antibacterial activity against Staphylococcus epidermidis assessed as growth inhibition at 1 mg/well after 24 hrs by Well method; assay type: functional
[30] = system: Staphylococcus epidermidis; experiment: Antibacterial activity against Staphylococcus epidermidis after 24 hrs by two fold serial dilution method; assay type: functional

Compound	inhibition zone (IZ) (Micrococcus luteus [1])	MIC (Salmonella typhimurium [2])	MIC (Staphylococcus aureus [3])	inhibition zone (IZ) (Staphylococcus aureus [4])	MIC (Pseudomonas aeruginosa [6])	inhibition zone (IZ) (Shigella flexneri [7])	inhibition zone (IZ) (Proteus vulgaris [8])	MIC (Shigella flexneri [9])	MIC (Micrococcus luteus [10])	MIC (Klebsiella aerogenes [11])	inhibition zone (IZ) (Klebsiella aerogenes [12])	inhibition zone (IZ) (Staphylococcus aureus [13])	inhibition zone (IZ) (Salmonella typhimurium [14])	inhibition zone (IZ) [15]	MIC (Staphylococcus aureus [16])	inhibition zone (IZ) (Bacillus subtilis [17])	MIC [18]	inhibition zone (IZ) (Pseudomonas aeruginosa [19])	MIC (Bacillus subtilis [21])	MIC (Proteus vulgaris [22])	also measured
CN[C@@H]1[C@H](O[C@H]2[C@H](O[C@H]3[C@H](O)[C@@H](O)[C@H](N=C(N)N)[C@@H](O)[C@@H]3N=C(N)N)O[C@@H](C)[C@]2(O)C=O)O[C@@H](CO)[C@H](O)[C@H]1O [STREPTOMYCIN]	26 mm	6.25 µg/mL (≈ 10.7 µM)	6.25 µg/mL (≈ 10.7 µM)	14 mm	25 µg/mL (≈ 43 µM)	30 mm	30 mm	6.25 µg/mL (≈ 10.7 µM)	6.25 µg/mL (≈ 10.7 µM)	25 µg/mL (≈ 43 µM)	22 mm	30 mm	24 mm	18 mm	6.25 µg/mL (≈ 10.7 µM)	22 mm	30 µg/mL (≈ 51.6 µM)	30 mm	25 µg/mL (≈ 43 µM)	6.25 µg/mL (≈ 10.7 µM)	inhibition zone (IZ) (Klebsiella pneumoniae [5]): 20 mm; MIC (Klebsiella pneumoniae [20]): 25 µg/mL (≈ 43 µM)
CC(=O)N1CCN(c2ccc(OCC3COC(Cn4ccnc4)(c4ccc(Cl)cc4Cl)O3)cc2)CC1 (centres undefined) [KETOCONAZOLE]																					MIC (Aspergillus flavus [23]): < 12.5 µg/mL; MIC (Malassezia pachydermatis [24]): 25 µg/mL (≈ 47 µM); MIC (Candida albicans [25]): 25 µg/mL (≈ 47 µM); inhibition zone (IZ) (Candida albicans [26]): 28 mm; inhibition zone (IZ) (Malassezia pachydermatis [27]): 26 mm; inhibition zone (IZ) (Aspergillus flavus [28]): 24 mm
C[C@H](NCCC(=O)c1cccc([N+](=O)[O-])c1)[C@H](O)c1ccccc1.Cl	19 mm	50 µg/mL	50 µg/mL	15 mm	50 µg/mL	16 mm	18 mm	50 µg/mL	50 µg/mL	50 µg/mL	16 mm	15 mm	17 mm	12 mm	50 µg/mL	15 mm	> 50 µg/mL	16 mm	50 µg/mL	50 µg/mL	inhibition zone (IZ) [29]: 19 mm; MIC (Malassezia pachydermatis [24]): > 50 µg/mL; MIC (Candida albicans [25]): > 50 µg/mL; MIC [30]: 50 µg/mL; inhibition zone (IZ) (Candida albicans [26]): 12 mm; inhibition zone (IZ) (Malassezia pachydermatis [27]): 13 mm
COc1ccc(C(=O)CCN[C@@H](C)[C@H](O)c2ccccc2)cc1.Cl	23 mm	50 µg/mL	50 µg/mL	18 mm	25 µg/mL	21 mm	21 mm	50 µg/mL	25 µg/mL	50 µg/mL	20 mm	20 mm	17 mm	20 mm	50 µg/mL	19 mm	50 µg/mL	20 mm	25 µg/mL	50 µg/mL	MIC (Aspergillus flavus [23]): > 50 µg/mL; inhibition zone (IZ) [29]: 22 mm; inhibition zone (IZ) (Klebsiella pneumoniae [5]): 12 mm; MIC [30]: 25 µg/mL; MIC (Klebsiella pneumoniae [20]): > 50 µg/mL; inhibition zone (IZ) (Aspergillus flavus [28]): 10 mm
COc1ccc(C(=O)CCN[C@H](C)[C@@H](O)c2ccccc2)cc1.Cl	19 mm	25 µg/mL	6.25 µg/mL	20 mm	25 µg/mL	24 mm	22 mm	25 µg/mL	12.5 µg/mL	12.5 µg/mL	19 mm	22 mm	18 mm	14 mm	12.5 µg/mL	22 mm		18 mm	25 µg/mL	12.5 µg/mL	MIC (Aspergillus flavus [23]): 50 µg/mL; inhibition zone (IZ) [29]: 24 mm; inhibition zone (IZ) (Klebsiella pneumoniae [5]): 16 mm; MIC (Malassezia pachydermatis [24]): > 50 µg/mL; MIC [30]: 6.25 µg/mL; MIC (Klebsiella pneumoniae [20]): > 50 µg/mL; inhibition zone (IZ) (Aspergillus flavus [28]): 16 mm
C[C@H](NCCC(=O)c1ccc(Cl)cc1)[C@H](O)c1ccccc1.Cl	28 mm	50 µg/mL	25 µg/mL	26 mm	25 µg/mL	22 mm	25 mm	25 µg/mL	50 µg/mL	50 µg/mL	25 mm	29 mm	24 mm		50 µg/mL	19 mm	> 50 µg/mL	20 mm	25 µg/mL	25 µg/mL	MIC (Aspergillus flavus [23]): 50 µg/mL; inhibition zone (IZ) [29]: 28 mm; inhibition zone (IZ) (Klebsiella pneumoniae [5]): 11 mm; MIC [30]: 25 µg/mL; inhibition zone (IZ) (Malassezia pachydermatis [27]): 12 mm; MIC (Klebsiella pneumoniae [20]): 50 µg/mL; inhibition zone (IZ) (Aspergillus flavus [28]): 15 mm
C[C@@H](NCCC(=O)c1ccc(Cl)cc1Cl)[C@@H](O)c1ccccc1.Cl	28 mm	3.13 µg/mL	3.13 µg/mL	37 mm	6.25 µg/mL	32 mm	33 mm	3.13 µg/mL	6.25 µg/mL	3.13 µg/mL	35 mm	34 mm	34 mm	16 mm	3.13 µg/mL	26 mm	50 µg/mL	24 mm	6.25 µg/mL	3.13 µg/mL	inhibition zone (IZ) [29]: 34 mm; MIC [30]: 3.13 µg/mL

Source: ChEMBL document CHEMBL3616371, “Synthesis of BF₃ catalyzed Mannich derivatives with excellent ee from phenylpropanolamine, study of their antimicrobial activity and molecular docking” (2015)
